From paper PMC6100073, “Activation of Anthracene Endoperoxides in Leishmania and Impairment of Mitochondrial Functions” (Molecules : A Journal of Synthetic Chemistry and Natural …, 2018)

What was measured:
[1] = tested on: LtP; test: EPR (CMH oxidation): superoxide formation in LtP; format: cell-based, Leishmania tarentolae; details: 20 µM AA or 100 µM other compounds, 500 × 10^6 LtP/mL, 400 µM CMH, DFO, DTPA, 5 min, 25 °C
Method: To measure superoxide radical (O2^•−) formation induced by AcEPs in LtP, EPR spectroscopy was used. An aliquot of the cell broth was transferred into an Eppendorf tube that was centrifuged (Hettich Universal 16, 20 °C, 2000× g, 10 min). The supernatant was discarded, the cell pellet was resuspended in PBS and centrifuged again. After removal of the supernatant, the cell pellet was resuspended in a mixture of PBS, 15 mM glucose (PBS/Glu), DFO (100 µM), and DTPA (25 µM). […] The cell suspension was aliquoted. CMH was added as detection agent leading to a final concentration of 400 µM. After 5 min of incubation at 25 °C, the respective substance was added resulting in final concentrations of 20 µM antimycin A (AA) or 100 µM of AcEP1117, AcEP1118, AcEP1129, AcEP1130, Ac, and AQ. Samples containing LtP and CMH were used as negative control. Samples containing PBS/Glu and CMH were used as negative control as well. After 5 min of incubation at 25 °C with the respective substance, aliquots of 17 µL of the cell suspensions were aspirated into a PTFE tube (outer diameter 0.7 mm). The tube was transferred into the MD5 resonator of the EPR spectrometer. Immediately, the measurement was started using the following parameters: microwave frequency 9.684 GHz; microwave power 20 mW, modulation frequency 100 kHz; modulation amplitude 1 G; time constant 0.82 s; center field 3449 G; scan rate 14 G/min; sweep width 100 G; scan time 419 s; attenuation 2.52 × 10^4; and scans 5.

[2] = tested on: LtP; test: O2 consumption of LtP (OxoPlates); format: cell-based, Leishmania tarentolae; details: 140 × 10^6 LtP/mL, 40 min; for influence on LtP respiration (oxygen consumption rate): 6.25–200 µM
Method: Oxygen consumption rates of LtP treated with AcEPs were measured using round-bottomed OxoPlates (OP96U, Precision Sensing GmbH, Regensburg, Germany). An aliquot of BHI culture medium was transferred to an open Erlenmeyer flask and was stirred on a magnetic stirrer for 30 min at 25 °C to saturate it with air (aBHI). Another aliquot of BHI culture medium was mixed with approximately 50 mg of the reducing agent sodium dithionite in a tightly closed falcon tube to remove the dissolved oxygen (dBHI). Aliquots of 200 µL of both calibration media were distributed to 6 wells each of the first row of an OxoPlate. To prevent oxygen exchange with the environment, 70 µL of paraffin oil were layered on top of each well containing liquid. The plate was then incubated in the dark for 15 min at 25 °C for equilibration. Then the fluorescence of both calibration media was measured at a microplate reader (Perkin Elmer Enspire, Germany) in a dual kinetic mode using an excitation wavelength of 540 nm for both of the dyes, emission wavelengths of 650 nm for the indicator dye, and 590 nm for the reference dye. The ratio of both intensities (IR) was calculated for each well and averaged giving the two calibration constants k0 or k100. From the second row on, each well was filled with 50 µL of aBHI. The third row was provided with extra 50 µL of aBHI. The respective amounts of the anthracene derivatives (Ac, AQ, AcEP1117, AcEP1118, AcEP1129, AcEP1130) were added and mixed properly. A serial dilution was performed by transferring 50 µL of the mixture in five subsequent 1:2 steps. LtP (140 × 10^6 cells/mL) were suspended in aBHI and aliquots of 150 µL were transferred to each well giving a maximal final concentration of the AcEPs of 200 µM, declining with onward 1:2 dilution steps. On top of each well, 70 µL of paraffin oil was added. The fluorescence intensity of each well was determined in 5 min intervals over 40 min. Each concentration was measured in quadruplicates. The oxygen concentration was calculated using the following equation (PreSens–Precision Sensing GmbH):O2 [µM] = 100 × (k0/IR − 1) / (k0/k100 − 1) × 2.83
The slope of the change of the oxygen concentrations over time was calculated giving the oxygen consumption rate [µM/min] for each well. The value obtained for aBHI was subtracted to eliminate the influence of the medium. The rate was finally normalized to the oxygen consumption rate of the wells that did contain cells but no test compounds.

SMILES | CMH oxidation (superoxide radical formation) in LtP [1] | influence on LtP respiration (oxygen consumption rate) [2] | concentration from which oxygen consumption is significantly decreased ([2]; p < 0.05 vs 0 µM) [µM]
O=C1c2ccccc2C(=O)c2ccccc21 [AQ, anthraquinone, reference compound] | did not trigger additional CMH oxidation in LtP | no considerable influence on the LtP respiration up to concentrations of 200 µM | –
c1ccc2cc3ccccc3cc2c1 [Ac, anthracene] | did not trigger additional CMH oxidation in LtP | no considerable influence on the LtP respiration up to concentrations of 200 µM | –
c1ccc2c(c1)C1OOC2c2ccccc21 [AcEP1117, 9,10-dihydro-9,10-epidioxidoanthracene] | failed to cause any enhanced oxidation of CMH | no considerable influence on the LtP respiration up to concentrations of 200 µM | –
CC12OOC(C)(c3ccccc31)c1ccccc12 [AcEP1118, 9,10-dimethyl-9,10-dihydro-9,10-epidioxidoanthracene] | failed to cause any enhanced oxidation of CMH | no considerable influence on the LtP respiration up to concentrations of 200 µM | –
CC12OOC(c3ccccc31)c1ccccc12 [AcEP1129, 9-methyl-9,10-dihydro-9,10-epidioxidoanthracene] | an increased CMH oxidation rate occurred | significant decline in the oxygen consumption rate at higher concentrations | 25
CCc1ccc2c(c1)C1OOC2c2ccccc21 (stereo not shown) [AcEP1130, 2-ethyl-9,10-dihydro-9,10-epidioxidoanthracene] | an increased CMH oxidation rate occurred | significant decline in the oxygen consumption rate at higher concentrations | –
